Laboratory results as given in paper PMC10941181 (2024).

How the values were obtained:
[1] = tested on: R2-Pu24T (G4 DNA) (DNA, G4) AGCACTCTAGCTCTATGAGGGTGGTGAGGGTGGGGAAGG; assay: 1H NMR imino shifts; settings: K+, 10 mM potassium phosphate; pH 7.4, 298 K
[2] = tested on: Cy5-Pu24T G4 (DNA, G4) AGCACTCTAGCTCTATGAGGGTGGTGAGGGTGGGGAAGG; assay: microscale thermophoresis; settings: 100 mM KCl, 10 mM potassium phosphate; pH 7.4, 0.05% Tween 20; 20 nM labelled DNA; GL 0.6 nM to 2.5 μM

- binding [1]: yes
- Kd [2]: > 200 nM
Structure (SMILES): Cc1cc(N2CCNCC2)nc(Nc2nc(C)c3ccc4c(c3n2)CCC4)n1
